Biological target: T1, TRPV3 (Mus musculus, UniProt Q8K424)
T1 sequence (Q8K424 1-791): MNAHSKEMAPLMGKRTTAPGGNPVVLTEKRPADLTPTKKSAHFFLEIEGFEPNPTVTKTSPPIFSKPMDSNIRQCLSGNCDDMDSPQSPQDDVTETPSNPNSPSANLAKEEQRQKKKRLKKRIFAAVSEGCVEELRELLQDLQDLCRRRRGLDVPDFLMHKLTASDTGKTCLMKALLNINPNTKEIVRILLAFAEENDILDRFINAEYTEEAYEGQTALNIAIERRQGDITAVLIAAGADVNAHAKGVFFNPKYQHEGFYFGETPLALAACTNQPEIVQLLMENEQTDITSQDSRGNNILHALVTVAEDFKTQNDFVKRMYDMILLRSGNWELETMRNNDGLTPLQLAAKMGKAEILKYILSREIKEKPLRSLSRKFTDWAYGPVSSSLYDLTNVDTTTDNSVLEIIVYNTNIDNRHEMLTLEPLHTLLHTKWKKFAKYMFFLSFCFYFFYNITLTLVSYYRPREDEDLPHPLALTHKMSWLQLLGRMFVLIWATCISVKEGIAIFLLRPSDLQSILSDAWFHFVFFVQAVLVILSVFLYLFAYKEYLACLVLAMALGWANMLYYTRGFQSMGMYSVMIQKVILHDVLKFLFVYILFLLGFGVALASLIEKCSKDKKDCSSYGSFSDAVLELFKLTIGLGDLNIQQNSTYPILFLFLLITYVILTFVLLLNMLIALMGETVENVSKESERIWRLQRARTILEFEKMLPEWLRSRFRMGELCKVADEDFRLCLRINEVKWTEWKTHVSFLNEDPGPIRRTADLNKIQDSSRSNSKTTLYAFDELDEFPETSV
Assay: patch-clamp, reversible potentiation of 2-APB response in inside-out patches
Type: cell-based

SMILES: CC(C)=C[C@H]1C[C@H](C)[C@]2(CC[C@]3(C)C[C@H]4[C@H](C(=O)C[C@@]4(C)O)/C(C=O)=C\C[C@H]32)O1 [ophiobolin A]
- patch-clamp, reversible potentiation of 2-APB response in inside-out patches: some CaM inhibitors such as ophiobolin A and W-7 may directly interfere with the gating of TRPV3
